Results from PubChem BioAssay AID1626 (SRMLSC, 2009).

Test system: M. tuberculosis H37Rv growth inhibition
Assay: M. tuberculosis H37Rv growth inhibitors, H37Rv strain (AID 1626)
Settings: for IC90: measured here: IC90 against H37Rv; for CC50: measured here: Vero cell cytotoxicity

| Compound | IC50 | IC90 | CC50 |
| --- | --- | --- | --- |
| CCn1c(=O)c(C(=O)Nc2nc3ccccc3[nH]2)c(O)c2ccccc21 | 0.388 µM | 0.423 µM | > 40 µM |
| Cc1ccc(NC(=O)CSc2ccc(-c3ccccn3)nn2)cc1 | 1.98 µM | 2.74 µM | > 40 µM |
| COc1ccc(C(C)(C)C)cc1NC(=O)COC(=O)c1cc(SC)ccc1Cl | 54.6 µM | > 100 µM |  |
| CCOC(=O)c1ccc(COC(=O)c2ccc(-c3nnc(-c4ccccc4)o3)cc2)o1 | 23.4 µM | > 100 µM | > 40 µM |
| Cc1ccc2nc(Cl)c3nnnn3c2c1 | 11.9 µM | 17 µM | > 40 µM |
| COc1cccc(-c2nnc(SCC(=O)Nc3cc(C)on3)o2)c1 | 5.8 µM | 8.52 µM | > 40 µM |
| COc1cc(-c2nnc(SCC(=O)OC3CCCCC3)o2)cc(OC)c1OC | < 0.195 µM | 1.78 µM |  |
| CC[C@H]1CC2CN3CCc4c([nH]c5c([C@H]6C[C@H]7[C@H](CC)CN(C)[C@@H](Cc8c6[nH]c6ccccc86)[C@H]7C(=O)OC)c(OC)ccc45)C(C(=O)OC)(C2)C13 | 5.85 µM | 7.6 µM | 20.8 µM |
| CCCCn1c(NC(=O)C2CCCCC2)nc2ccccc21 | 0.881 µM | > 100 µM | 35 µM |
| O=C(CCl)N(c1ccccc1)c1ccccc1 | 5.73 µM | 17.6 µM | 1.69 µM |
| COC(=O)c1cc(NC(=O)N2c3ccccc3Sc3ccccc32)cc(C(=O)OC)c1 |  |  | > 40 µM |
| C=CCOc1ccc(/C=N/O)cc1Cl |  | > 100 µM |  |
| Cc1cccc(CN2CCCC(C(=O)c3cccc(OC(C)C)c3)C2)n1 (stereo not given) | 12.3 µM | > 100 µM | > 40 µM |
| CCCCOC(=O)c1ccc(NC(=O)C2CCCO2)cc1 (stereo not given) | 14.2 µM | > 100 µM |  |
| COc1ccc(C(=O)C(CN2CCOCC2)c2ccccc2)cc1F (stereo not given) | 11.5 µM | 12.5 µM | 16.1 µM |
| COc1ccc(NC(=O)CCc2nc(-c3ccccc3F)no2)cc1 |  | > 100 µM |  |
| COc1ccc(-c2csc(NC(C)c3nc4cc(Cl)c(N5CCCCC5)cc4n3CCCO)n2)cc1 (stereo not given) | 12.7 µM | > 100 µM | > 40 µM |
| CCN(CC)CCOC(=O)c1ccc(N/C=C(/C#N)c2nc(-c3ccc(OC)c(OC)c3)cs2)cc1 | 4.16 µM | 22.1 µM | > 40 µM |
| CC(C)Cc1c(O)nc(SCC(=O)Nc2ccc3c(c2)CCC3)[nH]c1=O |  | > 100 µM |  |
| CCOc1ccc2nc(NC(=O)CSC3=NCCS3)sc2c1 |  | > 100 µM |  |
| O=c1c2ccccc2c(C=NC2CCN(Cc3ccccc3)CC2)c(O)n1Cc1ccc2c(c1)OCO2 | 6.36 µM | 12.2 µM | > 40 µM |

| Compound | IC50 | IC90 | CC50 |
| --- | --- | --- | --- |
| COc1ccc(NCC(=O)Nc2ccccc2C#N)cc1Cl | 97.8 µM | > 100 µM |  |
| Cc1cccc(-c2nsc(SCC(=O)NCC3CCCO3)n2)c1 (stereo not given) | 1.19 µM | 4.2 µM |  |
| CCCCc1ccc(NC(=O)C2CCCO2)cc1 (stereo not given) | 1.71 µM | > 100 µM |  |
| Cc1ccc(-c2nsc(SCC(=O)Nc3ccc4c(c3)OCO4)n2)cc1 | 0.892 µM | 2.51 µM |  |
| O=C(OCc1nc2ccccc2s1)c1ccco1 | 32.7 µM | > 100 µM |  |
| CCCNC1=C(N(C(C)=O)c2cccc(F)c2)C(=O)c2ccccc2C1=O | 2.75 µM | 4.13 µM | 29.9 µM |
| NS(=O)(=O)c1ccc(CCNC(=O)c2ccc3nc4ccc(Cl)cc4c(=O)n3c2)cc1 | 10.1 µM | 30.3 µM |  |
| Cc1ccccc1NC(=O)/C=C/c1ccc([N+](=O)[O-])s1 | 1.46 µM | 1.92 µM | 18.6 µM |
| O=C(COc1cccc(Cl)c1)Nc1ccc2c(c1)CCC2 | 22.4 µM | > 100 µM |  |
| Cc1ccc(/C=C/C(=O)C2C(=O)c3ccccc3C2=O)cc1 | 3.39 µM | 5.29 µM | > 40 µM |
| COC(=O)CSc1nc2ccc(NC(=O)c3ccccc3C(=O)N3CCOCC3)cc2s1 | 8.89 µM | > 100 µM |  |
| O=C(CCl)NC1CCCc2ccccc21 (stereo not given) | 20.6 µM | > 100 µM | 32.5 µM |
| Cc1[nH]nc2c1C(c1ccc(-c3ccc(Cl)cc3)o1)C(C#N)=C(N)O2 (stereo not given) | 0.749 µM | 91.5 µM | > 40 µM |
| O=C(CN1CCC(C(=O)c2ccc3c(c2)OCCO3)CC1)NC1CCCC1 |  |  | > 40 µM |
| Cc1cc(C)cc(N=c2c([N+](=O)[O-])nn(-c3cccc(Cl)c3)n2O)c1 | 4.89 µM | 9.8 µM | > 40 µM |
| COc1cc(NC(=O)c2ccc(Cl)cc2)c(OC)cc1NC(=O)CN1CCCCC1 | 8.74 µM | 16.9 µM |  |
| CCOC(=O)c1ccccc1-n1c(C)cc(C2N=C(N)Nc3nc4ccccc4n32)c1C (stereo not given) | 11.5 µM | 13.7 µM |  |
| COc1ccc(NC(=O)CSC2=C(C#N)C(c3ccco3)C(C(=O)Nc3nc4ccccc4s3)=C(C)N2)cc1 (stereo not given) | 14 µM | > 100 µM | > 40 µM |
| CC(=O)c1ccc(NC(=O)c2ccc(CNc3c(N4CCOCC4)c(=O)c3=O)cc2)cc1 | 5.81 µM | 6.61 µM |  |
| Cc1ccc(-c2nn(-c3ccccc3)cc2C=O)o1 |  |  | > 40 µM |
| CN(CC(=O)Nc1ccc(Cl)c(Cl)c1)Cc1nnc(-c2ccc(F)cc2)o1 | 15.9 µM | 24.1 µM |  |

| Compound | IC50 | IC90 | CC50 |
| --- | --- | --- | --- |
| Cc1cccc(C(=O)Nc2ccc(C(=O)/C=C/c3cccnc3)cc2)c1 | 6.04 µM | 9.07 µM | 22.3 µM |
| Cc1cc(=O)[nH]c(-n2nc(C)c(Oc3ccccc3O)c2C)n1 | 7.72 µM | > 100 µM | > 40 µM |
| CCCCOc1ccc(NC(=O)C2CC=CCC2C(=O)O)cc1 (stereo not given) | 75.7 µM | > 100 µM |  |
| CCOc1ccc(N2C(=O)/C(=C\c3ccc(OC)c(O)c3)S(=O)(=O)C2c2cccc([N+](=O)[O-])c2)cc1 (stereo not given) |  | > 100 µM |  |
| CCCCCCOc1cccc(N)c1 | 16.9 µM | > 100 µM |  |
| O=C(CSc1nc(-c2ccccc2Cl)ns1)Nc1ccc2c(c1)OCO2 |  |  | > 40 µM |
| CC(=O)n1cc(N(C(=O)CCl)c2ccc([N+](=O)[O-])cc2)c2ccccc21 | 14 µM | 30.3 µM | 14.7 µM |
| COc1ccc(CCNC(=O)NC23CC4CC(CC(C4)C2)C3)cc1 | 12.9 µM | > 100 µM | > 40 µM |
| CCOC(=O)c1ccc(NC(=O)N2CCN(Cc3ccccc3)CC2)cc1 |  | > 100 µM |  |
| Cc1ccc(C(=O)CNc2ccc(C)c(Cl)c2)cc1 |  | > 100 µM |  |
| Cc1ccc(N=C/C(C(=O)C(F)(F)F)=C(\O)c2ccco2)cc1Cl |  | > 100 µM |  |
| Cc1nc(N2CCN(c3ccccn3)CC2)c2c(C)c(C(=O)Nc3ccccc3F)sc2n1 | 8.96 µM | > 100 µM | > 40 µM |
| O=C(Cn1nc(CNc2ccc(Cl)cc2)[n+]2c1CCCCC2)c1ccc(Br)cc1 | 4.63 µM | 7.74 µM |  |
| CC(C)(C)c1ccc(C(=O)NCCCN2CCN(CCCNC(=O)c3ccc(C(C)(C)C)cc3)CC2)cc1 | 5.43 µM | 7.12 µM | 27.4 µM |
| Cc1ccc(-c2nnc3sc(C4COc5ccccc5O4)nn23)cc1 (stereo not given) | 4.77 µM | > 100 µM |  |
| N=C1SC(c2ccccc2)C(=O)N1c1ncc(Cc2ccccc2)s1 (stereo not given) | 26 µM | > 100 µM | 34.9 µM |
| CCc1sc(N)nc1-c1ccccc1 |  | > 100 µM |  |
| C/C=C/C(=O)OCC(=O)Nc1ccc(OC)c(Cl)c1 | 20 µM | > 100 µM |  |
| O=C(Nc1ccc(F)cc1F)Nc1csc2ccccc12 | < 0.391 µM | 52.7 µM | > 40 µM |
| O=C(CC(=O)c1ccccc1O)c1cccc(F)c1 | 18.4 µM | 29.2 µM | > 40 µM |
| CCOC(=O)COc1ccc(/C=C2/SC(=Nc3ccccc3)N(Cc3cccnc3)C2=O)cc1OC | 10.4 µM | > 100 µM | > 40 µM |

| Compound | IC50 | IC90 | CC50 |
| --- | --- | --- | --- |
| COCCn1nnnc1C(c1cc2cc(OC)ccc2[nH]c1=O)N1CCC(Cc2ccccc2)CC1 (stereo not given) | 7.52 µM | 15.8 µM |  |
| COc1ccc(-c2csc(NC(C)c3nc4cc(Cl)c(N5CCCCC5)cc4n3CCOCCO)n2)cc1 (stereo not given) | 7.74 µM | > 100 µM | > 40 µM |
| COc1ccc(CNC[C@@H](CCCCN(C)Cc2ccc(OC)cc2)N2C[C@H](c3ccccc3)N(CCc3ccc(Cl)c(Cl)c3)C(=O)C2=O)cc1 | 12.2 µM | 19.2 µM | 11.5 µM |
| COc1ccccc1-c1nnc(NC(=O)C2=COCCO2)o1 | 8.99 µM | 15.5 µM | > 40 µM |
| COc1ccc(-c2cc3nc(C)c(CCC(=O)NCc4ccc(F)cc4)c(C)n3n2)c(OC)c1 |  |  | > 40 µM |
| Cc1ccc(N/C(N)=N/c2nc(C)cc(N3CCCCC3)n2)c(C)c1 | 2.17 µM | 3.68 µM | 9.19 µM |
| CN(C)c1ccc(C(=O)Nc2nnc(C3=COCCO3)o2)cc1 | 23.5 µM | 26.7 µM | > 40 µM |
| COc1ccc(C2/C=C\CN(C(=O)Nc3ccc(C(F)(F)F)cc3)CC(=O)N2Cc2ccc(F)cc2)cc1 (stereo not given) | 5.74 µM | 6.73 µM | 16.7 µM |
| O=C(COC(=O)Cc1ccccc1F)Nc1ccc2c(c1)OCO2 |  | > 100 µM |  |
| COc1ccc(-c2nc(CN3CCCCC3c3nccn3C)c(C)o2)c(C)c1C (stereo not given) | 18.1 µM | 40.9 µM | 22 µM |
| COc1ccc2c(c1)CCc1cnc(N)nc1-2 | 69.9 µM | > 100 µM | > 40 µM |
| O=c1oc2ccc(Br)cc2cc1-c1nc2ccccc2o1 | 2 µM | 3.83 µM |  |
| CCCC(=O)OCCNc1cc(Sc2nccn2C)c2nonc2c1[N+](=O)[O-] | 17.9 µM | 31.6 µM | 19.2 µM |
| S=c1[nH]cnc2sc(-c3ccccc3)cc12 | 8.3 µM | > 100 µM |  |
| O=C(/C=C/c1cccc([N+](=O)[O-])c1)NC1CC2CCC1C2 (stereo not given) | 6.04 µM | > 100 µM |  |
| COc1ccc(-c2ccnc3nc(N4CCN(c5ccccc5)CC4)nn23)cc1 | 14.9 µM | > 100 µM | > 40 µM |
| CN(C)CCNC(=O)/C(=C/c1ccc(-c2ccc(Cl)cc2Cl)o1)NC(=O)c1ccccc1 | 10.5 µM | 11.6 µM | 10.2 µM |
| CCCC(=O)OCCNc1cc(SCc2ccco2)c2nonc2c1[N+](=O)[O-] | 4.2 µM | 9.07 µM |  |
| COc1cc(CNc2ccc3c(c2)CCC3)cc(OC)c1O | 46.4 µM | > 100 µM |  |
